Laboratory results reported in PubChem BioAssay (NCI).
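Interpolation was linear, between the two tested concentrations surrounding the appropriate level; five concentrations were tested over 48 hours in 96-well plates. GI50 marks 50% less growth. TGI: concentration producing complete growth inhibition.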

Tests used:
Experiment in all cases: NCI anticancer screen, dose series, 48 h
HT29 colon = system: HT29 colon
K-562 leukemia = system: K-562 leukemia
MCF7 breast = system: MCF7 breast
NCI-H23 lung = system: NCI-H23 lung
SN12C renal = system: SN12C renal
U251 CNS = system: U251 CNS
COLO 205 colon = system: COLO 205 colon
HCT-15 colon = system: HCT-15 colon
TK-10 renal = system: TK-10 renal
UACC-257 melanoma = system: UACC-257 melanoma

SMILES | GI50 (HT29 colon) [µM] | TGI (HT29 colon) [µM] | GI50 (K-562 leukemia) [µM] | TGI (K-562 leukemia) [µM] | GI50 (MCF7 breast) [µM] | TGI (MCF7 breast) [µM] | GI50 (NCI-H23 lung) [µM] | TGI (NCI-H23 lung) [µM] | GI50 (SN12C renal) [µM] | TGI (SN12C renal) [µM] | GI50 (U251 CNS) [µM] | TGI (U251 CNS) [µM] | GI50 (COLO 205 colon) [µM] | GI50 (HCT-15 colon) [µM] | TGI (HCT-15 colon) [µM] | GI50 (TK-10 renal) [µM] | TGI (TK-10 renal) [µM] | GI50 (UACC-257 melanoma) [µM] | TGI (UACC-257 melanoma) [µM] | TGI (COLO 205 colon) [µM]
N#CC1=C(/N=C/c2ccccc2)Oc2c(ccc3ccccc23)C1c1ccccc1 (stereo not drawn) | 0.37 | > 100 | 0.358 | > 100 | 0.421 | > 100 | 0.715 | > 100 | 0.822 | > 100 | 0.527 | > 100 | 0.594 | 0.494 | > 100 | 13.7 | > 100 | > 100 | > 100 | –
CC(=O)NCc1cccc(C#Cc2cncnc2Nc2ccc(OCc3cccc(F)c3)c(Cl)c2)c1 | 9.19 | > 25 | 10.1 | > 25 | 9.18 | > 25 | 14.1 | > 25 | 10.6 | > 25 | 11 | > 25 | > 16.7 | 8.31 | > 25 | 1.97 | > 20.2 | 12.3 | > 25 | > 25
COc1ccc(-c2nc(/C=C3\SC(=NCc4ccccc4)NC3=O)c3ccccn23)cc1 | 0.818 | 2.17 | 2.76 | > 100 | 1.55 | 3.39 | 1.37 | 3.51 | 1.68 | 4.63 | 1.95 | – | 2.75 | 1.47 | 2.18 | 2.31 | 5.24 | 1.52 | 3.51 | 7.66
NS(=O)(=O)c1ccc(-c2cc3ccncc3cc2OCc2ccccc2)cc1 | > 16.4 | > 25 | > 19.6 | > 25 | 14.5 | > 25 | > 25 | > 25 | 24.9 | > 25 | > 21.5 | > 25 | > 21.2 | 13.2 | > 25 | > 23.1 | > 25 | > 25 | > 25 | > 25
COC1=C(OC)C(=O)C(SC/C=C(\C)CCCC(C)CCCC(C)CCCC(C)C)=CC1=O (stereo not drawn) | 4.24 | > 100 | 0.678 | > 100 | 0.455 | > 26.9 | 1.37 | 36.1 | 0.741 | > 100 | 0.479 | > 100 | 8.49 | 1.38 | > 100 | 2.46 | > 59.4 | 2.71 | > 100 | > 100
CCc1cccc(C)c1NC(=O)c1sc2nc3c(cc2c1N)C(=O)CCC3 | 0.411 | 2.3 | 0.422 | 22.4 | 0.396 | > 91.4 | 0.732 | > 100 | 0.909 | > 100 | 0.659 | > 100 | 0.35 | 0.495 | > 100 | 0.774 | 79.6 | 12.5 | 76.1 | 1.51
CSc1nc2sc3c(c2c(=O)n1-c1ccc(C(C)C)cc1)CCC(=O)C3 | 2.97 | 6.7 | 3.02 | 9.04 | 3.14 | 10.6 | 2.2 | 4.53 | 2.45 | 6.02 | 1.7 | 3.07 | 1.89 | 2.14 | 4.04 | 2.58 | 6.53 | 3.21 | 9.81 | 3.63
O=C(CCCCCCN1CC(=O)N2[C@@H](c3ccc(Cl)c(Cl)c3)c3[nH]c4ccccc4c3C[C@H]2C1=O)NO | 2.93 | 9 | 1.54 | 21.4 | 1.87 | 15 | 4.73 | 13.5 | 4.33 | 14.5 | 2.78 | 8.25 | 3.5 | 10 | > 33.3 | 3.51 | 10.2 | 3.81 | 18.2 | 10.1
COc1cc(/C=C/C(=O)c2cccc(-n3cc(-c4ccc(Cl)cc4)[nH]c3=O)c2)cc(OC)c1OC | 2 | 3.71 | 3.69 | > 100 | 1.74 | 5.75 | 3.56 | 16.9 | 5.14 | 28.5 | 2.12 | 4.62 | 7.38 | 3.85 | 10.3 | 6.46 | 71.5 | 17.4 | 90.9 | 20.2
N#CCN1CCn2c1nsc2=S | > 100 | > 100 | 48.2 | > 100 | 55.3 | > 100 | – | – | > 100 | > 100 | > 100 | > 100 | 85.5 | > 100 | > 100 | > 100 | > 100 | > 100 | > 100 | > 100
O=C(Nc1cccc(-n2cc(-c3ccncc3)c(-c3cc(O)cc(Cl)c3)n2)c1)c1cc(C(F)(F)F)cc(C(F)(F)F)c1 | 2.5 | 37.7 | 3.24 | > 100 | 2.86 | > 100 | 4.16 | 46.5 | 4.77 | > 100 | 3.23 | 24.4 | 2.32 | 2.6 | 14.7 | – | – | 4.23 | 51.2 | 5.74
COc1cc2c(cc1OCCCCN1CCN(C(=S)SCCC(C#N)(c3ccccc3)c3ccccc3)CC1)N=C[C@@H]1CCCN1C2=O | 1.13 | > 100 | 3.29 | > 100 | 0.435 | 2.23 | – | – | 1.16 | 4.54 | 1.11 | 2.66 | 1.4 | 1.41 | 3.9 | 1.26 | 3.04 | 1.97 | 4.17 | 5.66
Nc1nc(Nc2ccccc2SSc2ccccc2Nc2nc(N)nc(C(Cl)(Cl)Cl)n2)nc(C(Cl)(Cl)Cl)n1 | 22.3 | 79.7 | 3.93 | 17.7 | 6.46 | 33 | 3.66 | 13.9 | 2.46 | 7.26 | 2.29 | 5.85 | 17.6 | 3.89 | 15 | 4.85 | 17.2 | 11.7 | 92.9 | 34.9
Cn1cc(C2=C(c3cccc(OC[C@@H](O)CO)c3)C(=O)NC2=O)c2ccccc21 | > 25 | > 25 | 17.3 | > 25 | 2.07 | > 25 | > 25 | > 25 | > 23 | > 25 | > 15.5 | > 25 | > 18.3 | > 25 | > 25 | > 25 | > 25 | > 25 | > 25 | > 25
COc1ccc(/C=C(\C#N)n2nnc3c(F)cccc32)cc1 | 0.286 | – | 0.0645 | > 100 | 0.715 | > 100 | 0.508 | 12.5 | 0.585 | > 100 | 0.41 | 17.7 | 0.38 | 0.133 | > 100 | 2.73 | 29 | 1.16 | > 100 | > 100
Cc1cc[n+]2c(c1)-c1cc(C)cc[n+]1CC2 | – | > 100 | – | > 100 | – | > 100 | – | > 100 | – | > 100 | – | > 100 | – | – | > 100 | – | > 100 | – | > 100 | > 86.1
O=C(O)c1cccc(C(=O)O)c1S(=O)Cc1ccccc1 (stereo not drawn) | – | > 100 | – | > 100 | – | > 100 | – | > 100 | – | > 100 | – | > 100 | – | – | > 100 | – | > 100 | – | > 100 | > 100
COC(=O)[C@H]1CCCN1C(=O)[C@H]1CCCN1C(=O)[C@@H](Cc1c[nH]c2ccccc12)NC(=S)Nc1cc(C(F)(F)F)cc(C(F)(F)F)c1 | 1.75 | 3.65 | 2.4 | 5.52 | 2.16 | 5.35 | 2.07 | 4.68 | 1.69 | 3.19 | 1.54 | 2.9 | 1.83 | 1.66 | 3.13 | 2.21 | 5.62 | 1.85 | 4.26 | 3.49
C[C@]12CC[C@@H]3c4cc(OC(F)F)c(OS(N)(=O)=O)cc4CC[C@H]3[C@@H]1CC[C@@H]2O | 0.371 | 13.9 | 0.364 | > 100 | 0.39 | 20.8 | 0.621 | 20.1 | 0.608 | 19.1 | 0.539 | 16.4 | 0.653 | 0.406 | 13.6 | 17 | > 77.2 | 3.76 | 25.8 | 13.9
CC1OC(OC2C(O)CC(OC3C(O)CC(OC4CCC5(C)C(CCC6C5CC(O)C5(C)C(C7=CC(=O)OC7)CCC65O)C4)OC3C)OC2C)CC(O)C1O (stereo not drawn) | 0.0417 | 0.154 | 0.0319 | 0.122 | 0.0436 | 0.196 | 0.0235 | 0.0662 | 0.0391 | 0.248 | 0.0514 | 0.165 | 0.131 | 0.113 | 0.293 | 0.0295 | 0.087 | 0.126 | 0.256 | 0.272
Oc1c(I)cc(I)c2cccnc12 | 8.91 | > 100 | 5.01 | > 100 | 3.89 | 19.9 | 2.19 | 9.52 | 6.67 | 45.5 | 3.74 | 25.3 | 3.6 | 4.29 | > 100 | 1.68 | 20.2 | 3.53 | 35.5 | 17
O=C1c2sccc2-c2cccc3cccc1c23 (tested in a mixture with another compound) | – | 15.2 | – | 25.8 | – | > 100 | – | – | – | 89.4 | – | 23 | – | – | 24.9 | – | 22.6 | – | 38.9 | 15.6
COc1cc2nc(-c3cc(F)ccc3O)nc(N[C@@H]3CNC[C@H]3C(C)(C)O)c2cc1OC | 2 | 3.85 | 1.6 | 3.94 | 1.51 | 3.07 | 1.67 | 3.42 | 1.42 | 3.12 | 1.62 | 3.06 | 1.63 | 1.79 | 3.46 | 1.94 | 5.68 | 1.69 | 3.15 | 3.16
COc1ccc(N(CC(=O)NCCC[Te]c2ccccc2)C(=O)CNC(=O)OC(C)(C)C)cc1 | 3.82 | 13.9 | 5.5 | > 100 | 2.57 | 7.59 | 2.5 | 6.61 | 2.06 | 4.97 | 2.37 | 6.51 | 2.01 | 3.15 | 11.7 | 3.93 | 10.8 | 8.49 | 23.9 | 3.83
Cc1cc(C)nc(SC2=C(Nc3cc(Cl)ccc3O)C(=O)N(Cc3ccccc3)C2=O)n1 | 33.8 | 65 | 5.53 | > 160 | 20.5 | 109 | 113 | > 160 | – | – | 38.6 | > 160 | 36.4 | 23.5 | 78.4 | 53.9 | > 160 | 32.5 | 102 | 90.7
